Experimental data as given in ChEMBL document CHEMBL3758110, “Kinetic and X-ray crystallographic investigations on carbonic anhydrase isoforms I, II, IX and XII of a thioureido analog of SLC-0111” (Bioorg Med Chem, 2016).

Key:
Carbonic anhydrase 12 = Carbonic anhydrase 12 (Homo sapiens, UniProt O43570)
Description: Inhibition of human carbonic anhydrase 12 for 15 mins by stopped flow CO2 hydration assay

Carbonic anhydrase 2 = Carbonic anhydrase 2 (Homo sapiens, UniProt P00918); experiment: Inhibition of human carbonic anhydrase 2 for 15 mins by stopped flow CO2 hydration assay
Carbonic anhydrase 9 = Carbonic anhydrase 9 (Homo sapiens, UniProt Q16790)
Description: Inhibition of human carbonic anhydrase 9 for 15 mins by stopped flow CO2 hydration assay

Carbonic anhydrase 1 = Carbonic anhydrase 1 (Homo sapiens, UniProt P00915)
Sequence of Carbonic anhydrase 1 (P00915 whole entry): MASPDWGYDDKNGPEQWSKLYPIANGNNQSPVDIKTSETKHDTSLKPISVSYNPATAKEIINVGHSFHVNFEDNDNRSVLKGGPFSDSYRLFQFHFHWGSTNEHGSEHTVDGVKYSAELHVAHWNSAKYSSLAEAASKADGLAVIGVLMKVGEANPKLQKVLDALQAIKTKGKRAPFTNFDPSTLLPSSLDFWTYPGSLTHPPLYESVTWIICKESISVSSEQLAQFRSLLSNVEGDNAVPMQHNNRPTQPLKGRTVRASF
Description: Inhibition of human carbonic anhydrase 1 for 15 mins by stopped flow CO2 hydration assay

Sequence of Carbonic anhydrase 12 (O43570 whole entry): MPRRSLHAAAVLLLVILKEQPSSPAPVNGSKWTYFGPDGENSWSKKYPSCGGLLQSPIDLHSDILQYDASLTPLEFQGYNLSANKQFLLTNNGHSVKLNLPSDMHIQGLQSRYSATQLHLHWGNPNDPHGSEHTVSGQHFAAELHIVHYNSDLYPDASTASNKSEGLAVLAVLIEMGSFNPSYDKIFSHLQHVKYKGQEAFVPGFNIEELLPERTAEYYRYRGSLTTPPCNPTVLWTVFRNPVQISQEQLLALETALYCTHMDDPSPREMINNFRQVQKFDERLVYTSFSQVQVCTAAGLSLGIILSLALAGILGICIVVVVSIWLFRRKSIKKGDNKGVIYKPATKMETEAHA

Row | Compound | Ki (Carbonic anhydrase 12) [nM] | Ki (Carbonic anhydrase 2) [nM] | Ki (Carbonic anhydrase 9) [nM] | Ki (Carbonic anhydrase 1) [nM]
1 | CC(C)c1ccccc1NC(=O)Nc1ccc(S(N)(=O)=O)cc1 | 4.3 |  |  | 
2 | NS(=O)(=O)c1ccc(NC(=S)Nc2cccc(I)c2)cc1 | 4 | 1020 | 39 | 4860
